From patent US12084437B2, “Halo-substituted piperidines as orexin receptor modulators” (AstraZeneca AB, priority 2016, dated 2024)

Legend:
[1] = target: T1, OX1 (Homo sapiens, UniProt O43613); test: Orexin receptor cell-based functional assay, [Ca2+]i by FLIPR, CHO-OX1 cells; settings: FLIPR calcium, antagonism of EC90 of [OX], read-out: OXI, IC50
T1 construct: expressed in transfected cells; host or cells: CHO (CHO-OX1)
T1 sequence (O43613 1-425): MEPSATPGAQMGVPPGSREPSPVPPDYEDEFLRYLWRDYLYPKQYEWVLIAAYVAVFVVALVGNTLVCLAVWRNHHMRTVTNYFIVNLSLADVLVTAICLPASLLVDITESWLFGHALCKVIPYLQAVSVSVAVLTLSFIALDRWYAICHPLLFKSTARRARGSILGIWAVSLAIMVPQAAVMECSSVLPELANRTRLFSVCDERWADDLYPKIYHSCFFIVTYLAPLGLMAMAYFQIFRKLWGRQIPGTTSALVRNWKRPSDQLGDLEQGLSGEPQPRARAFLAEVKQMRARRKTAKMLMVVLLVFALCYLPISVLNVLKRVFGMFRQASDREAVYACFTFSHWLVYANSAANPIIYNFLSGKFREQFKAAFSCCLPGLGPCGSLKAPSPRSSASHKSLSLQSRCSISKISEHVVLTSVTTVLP
Method: (§1) Measurement of [Ca^2+]i using a FLIPR: CHO-OX1 or CHO-OX2 cells were seeded into black-walled clear-base 384-well plates (Corning, catalog #3712) at a density of 20,000 cells per well in F12-K medium supplemented with 10% FBS and then incubated in a 5% CO2, 37° C. incubator overnight to reach 90% confluency. The cells were incubated with equal volume of calcium6 loading buffer (Molecular Devices, Inc.) containing 2.5 mM probenecid at 37° C. for 2 h, followed by test compounds (dose-range 0.1 nM-10 μM) for another 30 min. The plates were then placed into a FLIPR (Molecular Devices, Inc.) to monitor fluorescence (λ excitation 488 nm, λ emission 540 nm) before and after the addition of EC90 of [OX].

[2] = target: T2, OX2 (Homo sapiens, UniProt O43614); test: Orexin receptor cell-based functional assay, [Ca2+]i by FLIPR, CHO-OX2 cells; settings: FLIPR calcium, antagonism of EC90 of [OX]
T2 construct: expressed in transfected cells; host or cells: CHO (CHO-OX2)
T2 sequence (O43614 1-444): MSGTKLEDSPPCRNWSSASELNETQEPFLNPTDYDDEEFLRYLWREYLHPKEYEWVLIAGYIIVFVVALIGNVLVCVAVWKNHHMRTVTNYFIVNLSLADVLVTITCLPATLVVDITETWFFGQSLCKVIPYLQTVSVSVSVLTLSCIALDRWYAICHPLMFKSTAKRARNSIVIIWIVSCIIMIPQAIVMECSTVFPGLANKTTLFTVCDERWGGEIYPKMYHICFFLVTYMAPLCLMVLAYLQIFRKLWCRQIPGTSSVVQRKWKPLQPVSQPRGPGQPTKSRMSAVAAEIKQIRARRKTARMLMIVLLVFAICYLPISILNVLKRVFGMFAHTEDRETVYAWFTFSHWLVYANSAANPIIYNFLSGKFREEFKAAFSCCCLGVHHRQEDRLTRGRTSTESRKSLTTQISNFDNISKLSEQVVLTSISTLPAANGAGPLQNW
Method: as §1, with “[OX]. Results for exemplary compounds of Formulae (I), (Ia), (Ib), (II), (IIa), (III), (IIIa), (IV), (IVa), (V), or (Va) are shown in Table 3.” for “[OX].”

Row | IC50 [1] | IC50 [2] | Compound
1 | 0.04 µM | > 5 µM | Cc1ccc(-n2nccn2)c(C(=O)N2CC(F)(F)C[C@@H](C)[C@H]2COc2ccc(C(F)(F)F)cn2)n1 [Compound 204, ((2S,3R)-5,5-difluoro-3-methyl-2-(((5-(trifluoromethyl)pyridin-2-yl)oxy)methyl)piperidin-1-yl)(6-methyl-3-(2H-1,2,3-triazol-2-yl)pyridin-2-yl)methanone]
2 | 0.012 µM | > 5 µM | C[C@@H]1CC(F)(F)CN(C(=O)c2cc(Cl)ccc2-n2nccn2)[C@@H]1CNc1cnc(C(F)(F)F)cn1 [Compound 154]
3 | 0.001 µM | > 5 µM | Cc1c(-c2ncccn2)c(C(=O)N2CC(F)(F)C[C@@H](C)[C@H]2CNc2ncc(C(F)(F)F)cn2)nn1C [Compound 233, ((2S,3R)-5,5-difluoro-3-methyl-2-(((5-(trifluoromethyl)pyrimidin-2-yl)amino)methyl)piperidin-1-yl)(1,5-dimethyl-4-(pyrimidin-2-yl)-1H-pyrazol-3-yl)methanone]
4 | 0.029 µM | > 5 µM | CCc1cnc(NC[C@@H]2[C@H](C)CC(F)(F)CN2C(=O)c2nc(C)sc2-c2ccc(F)cc2)nc1 [Compound 239, ((2S,3R)-2-(((5-ethylpyrimidin-2-yl)amino)methyl)-5,5-difluoro-3-methylpiperidin-1-yl)(5-(4-fluorophenyl)-2-methylthiazol-4-yl)methanone]
5 | 0.018 µM | > 5 µM | Cc1ccc(-c2ncccn2)c(C(=O)N2CC(F)(F)C[C@@H](C)[C@H]2CNc2ncc(Cl)cn2)n1 [Compound 18, ((2S,3R)-2-(((5-chloropyrimidin-2-yl)amino)methyl)-5,5-difluoro-3-methylpiperidin-1-yl)(6-methyl-3-(pyrimidin-2-yl)pyridin-2-yl)methanone]
6 | 0.014 µM | > 5 µM | C[C@@H]1CC(F)(F)CN(C(=O)c2nn(C)cc2-c2ncccn2)[C@@H]1CNc1ncc(C(F)(F)F)cc1F [Compound 228, ((2S,3R)-5,5-difluoro-2-(((3-fluoro-5-(trifluoromethyl)pyridin-2-yl)amino)methyl)-3-methylpiperidin-1-yl)(1-methyl-4-(pyrimidin-2-yl)-1H-pyrazol-3-yl)methanone]
7 | > 5 µM | > 5 µM | CCc1cnc(NC[C@@H]2[C@H](C)CC(F)(F)CN2C(=O)c2nn(C)cc2-c2ccc(F)cn2)nc1 [Compound 41]
8 | 0.057 µM | > 5 µM | C[C@@H]1CC(F)(F)CN(C(=O)c2nn(C)cc2-c2ncc(F)cn2)[C@@H]1CN(C)c1ncc(C(F)(F)F)cn1 [Compound 263]
9 | 0.002 µM | > 5 µM | C[C@@H]1CC(F)(F)CN(C(=O)c2nn(C)cc2-c2ccccc2)[C@@H]1CNc1cnc(C(F)(F)F)cn1 [Compound 120, ((2S,3R)-5,5-difluoro-3-methyl-2-(((5-(trifluoromethyl)pyrazin-2-yl)amino)methyl)piperidin-1-yl)(1-methyl-4-phenyl-1H-pyrazol-3-yl)methanone]
10 | 0.005 µM | > 5 µM | Cc1ccnc(-c2sc(C)nc2C(=O)N2CC(F)(F)C[C@@H](C)[C@H]2CNc2cnc(C(F)(F)F)cn2)c1 [Compound 147]
11 | 0.029 µM | > 5 µM | Cc1ccc(-c2nnn(C)n2)c(C(=O)N2CC(F)(F)C[C@@H](C)[C@H]2CNc2ncc(C(F)(F)F)cn2)n1 [Compound 240, ((2S,3R)-5,5-difluoro-3-methyl-2-(((5-(trifluoromethyl)pyrimidin-2-yl)amino)methyl)piperidin-1-yl)(6-methyl-3-(2-methyl-2H-tetrazol-5-yl)pyridin-2-yl)methanone]
12 | 0.004 µM | > 5 µM | C[C@@H]1CC(F)(F)CN(C(=O)c2nn(C)cc2-c2ncccn2)[C@@H]1CNc1ccc(C(F)(F)F)cn1 [Compound 200, ((2S,3R)-5,5-difluoro-3-methyl-2-(((5-(trifluoromethyl)pyridin-2-yl)amino)methyl)piperidin-1-yl)(1-methyl-4-(pyrimidin-2-yl)-1H-pyrazol-3-yl)methanone]
13 | > 1 µM | > 5 µM | C[C@@H]1CC(F)(F)CN(C(=O)c2nn(C)cc2-c2ccncn2)[C@@H]1CNc1ncc(C(F)(F)F)cn1 [Compound 241, ((2S,3R)-5,5-difluoro-3-methyl-2-(((5-(trifluoromethyl)pyrimidin-2-yl)amino)methyl)piperidin-1-yl)(1-methyl-4-(pyrimidin-4-yl)-1H-pyrazol-3-yl)methanone]
14 | 0.004 µM | > 5 µM | Cc1cccc(-c2sc(C)nc2C(=O)N2CC(F)(F)C[C@@H](C)[C@H]2CNc2ncc(C(F)(F)F)cn2)n1 [Compound 77]
15 | 0.002 µM | > 5 µM | Cc1cccc(-c2cn(C)nc2C(=O)N2CC(F)(F)C[C@@H](C)[C@H]2CNc2cnc(C(F)(F)F)cn2)c1 [Compound 123]
16 | 0.02 µM | > 5 µM | Cc1nc(C(=O)N2CC(F)(F)C[C@@H](C)[C@H]2CNc2ncc(Cl)cn2)c(-c2ncccn2)s1 [Compound 50]
17 | 0.07 µM | > 5 µM | C[C@@H]1CC(F)(F)CN(C(=O)c2cn(C)nc2-c2ccccc2)[C@@H]1CNc1ncc(Cl)cn1 [Compound 254]
18 | 0.024 µM | > 5 µM | Cc1cc(C(=O)N2CC(F)(F)C[C@@H](C)[C@H]2CNc2ncc(Cl)cn2)c(-c2ccccn2)s1 [Compound 92]
19 | 0.008 µM | > 5 µM | Cc1nc(C(=O)N2CC(F)(F)C[C@@H](C)[C@H]2CNc2ncc(C(F)(F)F)cn2)c(-c2ccc(F)cc2)s1 [Compound 68, ((2S,3R)-5,5-difluoro-3-methyl-2-(((5-(trifluoromethyl)pyrimidin-2-yl)amino)methyl)piperidin-1-yl)(5-(4-fluorophenyl)-2-methylthiazol-4-yl)methanone]
20 | 0.045 µM | > 5 µM | C[C@@H]1CC(F)(F)CN(C(=O)c2nn(C)nc2-c2ccccc2)[C@@H]1CNc1ncc(C(F)(F)F)cn1 [Compound 82]
21 | 0.038 µM | > 5 µM | C[C@@H]1CC(F)(F)CN(C(=O)c2nn(C)cc2-c2cccnc2)[C@@H]1CNc1cnc(C(F)(F)F)cn1 [Compound 155]
22 | 0.004 µM | > 5 µM | Cc1ccc(-c2ccccc2)c(C(=O)N2CC(F)(F)C[C@@H](C)[C@H]2CNc2ncc(C(F)(F)F)cn2)n1 [Compound 51]
23 | 0.002 µM | > 5 µM | Cc1nc(C(=O)N2CC(F)(F)C[C@@H](C)[C@H]2CNc2ncc(C(F)(F)F)cn2)c(-c2ccccc2)s1 [Compound 65]
24 | 0.019 µM | > 5 µM | COc1ccc(-c2cn(C)nc2C(=O)N2CC(F)(F)C[C@@H](C)[C@H]2CNc2cnc(C(F)(F)F)cn2)nc1 [Compound 135]
25 | 0.12 µM | > 5 µM | Cc1cnc(-c2cn(C)nc2C(=O)N2CC(F)(F)C[C@@H](C)[C@H]2CNc2ncc(C(F)(F)F)cn2)nc1 [Compound 219, ((2S,3R)-5,5-difluoro-3-methyl-2-(((5-(trifluoromethyl)pyrimidin-2-yl)amino)methyl)piperidin-1-yl)(1-methyl-4-(5-methylpyrimidin-2-yl)-1H-pyrazol-3-yl)methanone]
26 | 0.008 µM | > 5 µM | Cc1ccc(-c2nnn(C)n2)c(C(=O)N2CC(F)(F)C[C@@H](C)[C@H]2CNc2ncc(C(F)(F)F)cn2)c1 [Compound 8]
27 | > 1 µM | > 5 µM | C[C@@H]1CC(F)(F)CN(C(=O)c2cnn(C)c2-c2ccccn2)[C@@H]1CNc1ncc(Cl)cn1 [Compound 96]
28 | 0.006 µM | > 5 µM | Cc1ccc(-c2nnn(C)n2)c(C(=O)N2CC(F)(F)C[C@@H](C)[C@H]2CNc2ncc(Cl)cn2)c1 [Compound 9]
